Source: ChEMBL document CHEMBL5126582, “Discovery of (2-(pyrrolidin-1-yl)thieno[3,2-d]pyrimidin-4-yl)(3,4,5-trimethoxyphenyl)methanone as a novel potent tubulin depolymerizing and vascular disrupting agent” (Eur J Med Chem, 2022)

Legend:
[1] = test system: HeLa; assay: Induction of apoptosis in human HeLa cells assessed as necrotic cells at 750 nM incubated for 24 hrs by annexin V FITC and propidium iodide staining based flow cytometry analysis (reference value: 1.14 %); type: functional
[2] = test system: HeLa; assay: Induction of apoptosis in human HeLa cells assessed as viable cells at 750 nM incubated for 24 hrs by annexin V FITC and propidium iodide staining based flow cytometry analysis (reference value: 85.7%); type: functional; conditions: read-out: Activity
[3] = molecular target: Tubulin (Sus scrofa, UniProt P02554+P02550); assay: Inhibition of pig brain tubulin polymerization incubated for 19 mins by spectrophotometric method
[4] = test system: HeLa; assay: Induction of mitochondrial membrane potential alteration in human HeLa cells assessed as late apoptotic cells at 250 nM measured after 48 hrs by JC1 staining-based flow cytometry analysis (reference value: 0.009%); type: functional
[5] = test system: HeLa; assay: Induction of apoptosis in human HeLa cells assessed as late apoptotic cells at 500 nM incubated for 48 hrs by annexin V FITC and propidium iodide staining based flow cytometry analysis (reference value: 8.87%); type: functional
[6] = test system: HeLa; assay: Induction of apoptosis in human HeLa cells assessed as viable cells at 100 nM incubated for 48 hrs by annexin V FITC and propidium iodide staining based flow cytometry analysis (reference value: 85.5%); type: functional; conditions: read-out: Activity
[7] = test system: HeLa; assay: Induction of mitochondrial membrane potential alteration in human HeLa cells assessed as early apoptotic cells at 500 nM measured after 48 hrs by JC1 staining-based flow cytometry analysis (reference value: 9.07 %); type: functional
[8] = test system: HeLa; assay: Induction of apoptosis in human HeLa cells assessed as early apoptotic cells at 1 uM incubated for 48 hrs by annexin V FITC and propidium iodide staining based flow cytometry analysis (reference value: 6.01%); type: functional
[9] = test system: HeLa; assay: Induction of mitochondrial membrane potential alteration in human HeLa cells assessed as early apoptotic cells at 250 nM measured after 48 hrs by JC1 staining-based flow cytometry analysis (reference value: 9.07 %); type: functional
[10] = test system: HeLa; assay: Induction of apoptosis in human HeLa cells assessed as viable cells at 500 nM incubated for 48 hrs by annexin V FITC and propidium iodide staining based flow cytometry analysis (reference value: 85.5%); type: functional; conditions: read-out: Activity
[11] = test system: HeLa; assay: Induction of mitochondrial membrane potential alteration in human HeLa cells assessed as early apoptotic cells at 750 nM measured after 48 hrs by JC1 staining-based flow cytometry analysis (reference value: 9.07 %); type: functional
[12] = test system: HeLa; assay: Induction of apoptosis in human HeLa cells assessed as early apoptotic cells at 100 nM incubated for 72 hrs by annexin V FITC and propidium iodide staining based flow cytometry analysis (reference value: 2.36%); type: functional
[13] = Metabolic stability in rat liver microsomes assessed as half life incubated for 5 mins in presence of NADPH by HPLC analysis; type: ADME, Microsome
[14] = test system: HeLa; assay: Induction of cell cycle arrest in human HeLa cells assessed as accumulation of cells at G2/M phase at 100 to 2000 nM incubated for 24 to 48 hrs by […] flow cytometry; type: functional; conditions: dose 100-2000 nM, time 24-48 hrs, DDE = dose-dependent effect
[15] = test system: HeLa; assay: Induction of apoptosis in human HeLa cells assessed as necrotic cells at 100 nM incubated for 72 hrs by annexin V FITC and propidium iodide staining based flow cytometry analysis (reference value: 2.88 %); type: functional
[16] = test system: HeLa; assay: Induction of apoptosis in human HeLa cells assessed as late apoptotic cells at 100 nM incubated for 48 hrs by annexin V FITC and propidium iodide staining based flow cytometry analysis (reference value: 8.87%); type: functional
[17] = test system: HeLa; assay: Induction of apoptosis in human HeLa cells assessed as early apoptotic cells at 500 nM incubated for 24 hrs by annexin V FITC and propidium iodide staining based flow cytometry analysis (reference value: 0.12%); type: functional
[18] = test system: HeLa; assay: Induction of mitochondrial membrane potential alteration in human HeLa cells assessed as viable cells at 500 nM measured after 48 hrs by JC1 staining-based flow cytometry analysis (reference value: 90.9%); type: functional; conditions: read-out: Activity
[19] = Resistance index, ratio of IC50 for antiproliferative activity against human A549/PTX cells assessed as reduction in cell viability to IC50 for antiproliferative activity against human A549 cells assessed as reduction in cell viability; type: functional
[20] = test system: HCT-116; assay: Antiproliferative activity against human HCT-116 cells assessed as reduction in cell viability incubated for 48 hrs by MTS assay; type: functional, cell-based; conditions: HCT-116, 48 h

COc1cc(C(=O)c2nc(N3CCCC3)nc3ccsc23)cc(OC)c1OC
Activity [1]: 3.09%
viability at 0.75 µM [2]: 81.3%
IC50 [3]: 1.6 µM
Activity [4]: 0.01%
Activity [5]: 10.8%
viability at 0.1 µM [6]: 60.7%
Activity [7]: 33.1%
Activity [8]: 2.09%
Activity [9]: 9.45%
viability at 0.5 µM [10]: 78.1%
Activity [11]: 43.3%
Activity [12]: 2.65%
half-life [13]: 17 min
Activity [14]: Dde
Activity [15]: 5.32%
Activity [16]: 5.18%
Activity [17]: 6.1%
viability at 0.5 µM [18]: 66.9%
Ratio IC50 [19]: 1.7
IC50 [20]: 0.021 µM
